Consider 16 compounds from ChEMBL document CHEMBL4043200, “Synthesis and biological evaluation of 8-aryl-2-morpholino-7-O-substituted benzo[e][1,3]oxazin-4-ones against DNA-PK, PI3K, PDE3A enzymes and platelet aggregation” (Bioorg Med Chem, 2017).

Test [1] deals with Phosphatidylinositol 4,5-bisphosphate 3-kinase catalytic subunit alpha isoform (Homo sapiens) (UniProt P42336). As to the kind of experiment: Inhibition of wild type PI3K-alpha (unknown origin) assessed as decrease in ATP consumption at 10 uM using phosphotidylinositol bisphosphate and ATP measured after 60 mins by Kinase-Glo reagent based luminescence assay.
Test [2] has as its target T1, Phosphatidylinositol 4,5-bisphosphate 3-kinase catalytic subunit delta isoform (Homo sapiens) (UniProt O00329).
T1 sequence (whole entry): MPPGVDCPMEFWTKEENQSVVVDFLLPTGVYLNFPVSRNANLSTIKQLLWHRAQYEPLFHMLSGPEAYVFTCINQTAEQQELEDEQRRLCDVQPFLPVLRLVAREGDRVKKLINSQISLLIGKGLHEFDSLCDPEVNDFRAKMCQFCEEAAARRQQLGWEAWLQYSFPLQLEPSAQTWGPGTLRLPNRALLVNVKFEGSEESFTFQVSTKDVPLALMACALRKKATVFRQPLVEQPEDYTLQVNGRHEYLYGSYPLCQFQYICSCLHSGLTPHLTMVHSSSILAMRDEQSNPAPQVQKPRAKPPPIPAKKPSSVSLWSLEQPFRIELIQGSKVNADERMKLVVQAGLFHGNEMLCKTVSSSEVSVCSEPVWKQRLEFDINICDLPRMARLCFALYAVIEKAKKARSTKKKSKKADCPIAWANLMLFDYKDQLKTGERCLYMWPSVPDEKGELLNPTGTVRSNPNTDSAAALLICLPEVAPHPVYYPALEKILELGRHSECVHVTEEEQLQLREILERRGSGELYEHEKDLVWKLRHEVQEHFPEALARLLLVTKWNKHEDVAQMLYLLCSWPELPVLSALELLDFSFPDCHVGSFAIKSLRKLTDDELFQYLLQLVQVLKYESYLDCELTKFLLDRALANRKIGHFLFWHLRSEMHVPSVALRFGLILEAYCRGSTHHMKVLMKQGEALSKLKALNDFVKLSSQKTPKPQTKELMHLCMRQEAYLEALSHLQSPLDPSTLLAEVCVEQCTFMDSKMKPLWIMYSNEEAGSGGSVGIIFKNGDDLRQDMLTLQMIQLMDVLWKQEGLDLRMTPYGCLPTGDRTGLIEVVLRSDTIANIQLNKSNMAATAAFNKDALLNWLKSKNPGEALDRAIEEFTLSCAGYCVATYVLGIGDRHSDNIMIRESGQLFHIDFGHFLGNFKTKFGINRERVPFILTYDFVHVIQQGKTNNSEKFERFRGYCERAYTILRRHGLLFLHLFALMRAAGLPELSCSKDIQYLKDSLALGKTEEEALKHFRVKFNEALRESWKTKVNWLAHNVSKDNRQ
Description: Inhibition of wild type PI3K-delta (unknown origin) assessed as decrease in ATP consumption at 10 uM using phosphotidylinositol bisphosphate and ATP measured after 60 mins by Kinase-Glo reagent based luminescence assay. (In general: Kinase-Glo reads ATP consumption through a luciferase reaction.)

The target in test [3] is T2, cGMP-inhibited 3',5'-cyclic phosphodiesterase 3A (Homo sapiens, UniProt Q14432). As to the kind of experiment: Inhibition of human PDE3A at 10 uM by HTRF assay. A general note: Time-resolved FRET reads energy transfer from a long-lived donor to a nearby acceptor.
Test [4] deals with Phosphatidylinositol 4,5-bisphosphate 3-kinase catalytic subunit gamma isoform (Homo sapiens) (UniProt P48736). As to the kind of experiment: Inhibition of wild type PI3K-gamma (unknown origin) assessed as decrease in ATP consumption at 10 uM using phosphotidylinositol bisphosphate and ATP measured after 60 mins by Kinase-Glo reagent based luminescence assay.
Test [5] deals with DNA-dependent protein kinase catalytic subunit (Homo sapiens, UniProt P78527). As to the kind of experiment: Inhibition of human DNA-PK catalytic subunit at 10 uM using DNA and [EPPLSQEAFADLWKK] peptide substrate by HTRF assay.
Test [6] concerns the target T3, Phosphatidylinositol 4,5-bisphosphate 3-kinase catalytic subunit delta isoform (Homo sapiens, UniProt O00329).
T3 sequence (O00329 whole entry): T1 sequence (whole entry)
Description: Inhibition of wild type PI3K-delta (unknown origin) assessed as decrease in ATP consumption using phosphotidylinositol bisphosphate and ATP measured after 60 mins by Kinase-Glo reagent based luminescence assay.

Test [7] addresses Phosphatidylinositol 4,5-bisphosphate 3-kinase catalytic subunit beta isoform (Homo sapiens) (UniProt P42338). As to the kind of experiment: Inhibition of wild type PI3K-beta (unknown origin) assessed as decrease in ATP consumption at 10 uM using phosphotidylinositol bisphosphate and ATP measured after 60 mins by Kinase-Glo reagent based luminescence assay.
Test [8] concerns the target T2, cGMP-inhibited 3',5'-cyclic phosphodiesterase 3A. Description: Inhibition of human PDE3A by HTRF assay.
Another test has as its system Platelet. Description: Inhibition of platelet aggregation in human platelet-rich plasma pre-incubated for 5 mins before ADP stimulation for 10 mins. Format: functional, cell-based.

Each structure is given as a SMILES string.

Chain of DNA-dependent protein kinase catalytic subunit (P78527 whole entry, canonical isoform): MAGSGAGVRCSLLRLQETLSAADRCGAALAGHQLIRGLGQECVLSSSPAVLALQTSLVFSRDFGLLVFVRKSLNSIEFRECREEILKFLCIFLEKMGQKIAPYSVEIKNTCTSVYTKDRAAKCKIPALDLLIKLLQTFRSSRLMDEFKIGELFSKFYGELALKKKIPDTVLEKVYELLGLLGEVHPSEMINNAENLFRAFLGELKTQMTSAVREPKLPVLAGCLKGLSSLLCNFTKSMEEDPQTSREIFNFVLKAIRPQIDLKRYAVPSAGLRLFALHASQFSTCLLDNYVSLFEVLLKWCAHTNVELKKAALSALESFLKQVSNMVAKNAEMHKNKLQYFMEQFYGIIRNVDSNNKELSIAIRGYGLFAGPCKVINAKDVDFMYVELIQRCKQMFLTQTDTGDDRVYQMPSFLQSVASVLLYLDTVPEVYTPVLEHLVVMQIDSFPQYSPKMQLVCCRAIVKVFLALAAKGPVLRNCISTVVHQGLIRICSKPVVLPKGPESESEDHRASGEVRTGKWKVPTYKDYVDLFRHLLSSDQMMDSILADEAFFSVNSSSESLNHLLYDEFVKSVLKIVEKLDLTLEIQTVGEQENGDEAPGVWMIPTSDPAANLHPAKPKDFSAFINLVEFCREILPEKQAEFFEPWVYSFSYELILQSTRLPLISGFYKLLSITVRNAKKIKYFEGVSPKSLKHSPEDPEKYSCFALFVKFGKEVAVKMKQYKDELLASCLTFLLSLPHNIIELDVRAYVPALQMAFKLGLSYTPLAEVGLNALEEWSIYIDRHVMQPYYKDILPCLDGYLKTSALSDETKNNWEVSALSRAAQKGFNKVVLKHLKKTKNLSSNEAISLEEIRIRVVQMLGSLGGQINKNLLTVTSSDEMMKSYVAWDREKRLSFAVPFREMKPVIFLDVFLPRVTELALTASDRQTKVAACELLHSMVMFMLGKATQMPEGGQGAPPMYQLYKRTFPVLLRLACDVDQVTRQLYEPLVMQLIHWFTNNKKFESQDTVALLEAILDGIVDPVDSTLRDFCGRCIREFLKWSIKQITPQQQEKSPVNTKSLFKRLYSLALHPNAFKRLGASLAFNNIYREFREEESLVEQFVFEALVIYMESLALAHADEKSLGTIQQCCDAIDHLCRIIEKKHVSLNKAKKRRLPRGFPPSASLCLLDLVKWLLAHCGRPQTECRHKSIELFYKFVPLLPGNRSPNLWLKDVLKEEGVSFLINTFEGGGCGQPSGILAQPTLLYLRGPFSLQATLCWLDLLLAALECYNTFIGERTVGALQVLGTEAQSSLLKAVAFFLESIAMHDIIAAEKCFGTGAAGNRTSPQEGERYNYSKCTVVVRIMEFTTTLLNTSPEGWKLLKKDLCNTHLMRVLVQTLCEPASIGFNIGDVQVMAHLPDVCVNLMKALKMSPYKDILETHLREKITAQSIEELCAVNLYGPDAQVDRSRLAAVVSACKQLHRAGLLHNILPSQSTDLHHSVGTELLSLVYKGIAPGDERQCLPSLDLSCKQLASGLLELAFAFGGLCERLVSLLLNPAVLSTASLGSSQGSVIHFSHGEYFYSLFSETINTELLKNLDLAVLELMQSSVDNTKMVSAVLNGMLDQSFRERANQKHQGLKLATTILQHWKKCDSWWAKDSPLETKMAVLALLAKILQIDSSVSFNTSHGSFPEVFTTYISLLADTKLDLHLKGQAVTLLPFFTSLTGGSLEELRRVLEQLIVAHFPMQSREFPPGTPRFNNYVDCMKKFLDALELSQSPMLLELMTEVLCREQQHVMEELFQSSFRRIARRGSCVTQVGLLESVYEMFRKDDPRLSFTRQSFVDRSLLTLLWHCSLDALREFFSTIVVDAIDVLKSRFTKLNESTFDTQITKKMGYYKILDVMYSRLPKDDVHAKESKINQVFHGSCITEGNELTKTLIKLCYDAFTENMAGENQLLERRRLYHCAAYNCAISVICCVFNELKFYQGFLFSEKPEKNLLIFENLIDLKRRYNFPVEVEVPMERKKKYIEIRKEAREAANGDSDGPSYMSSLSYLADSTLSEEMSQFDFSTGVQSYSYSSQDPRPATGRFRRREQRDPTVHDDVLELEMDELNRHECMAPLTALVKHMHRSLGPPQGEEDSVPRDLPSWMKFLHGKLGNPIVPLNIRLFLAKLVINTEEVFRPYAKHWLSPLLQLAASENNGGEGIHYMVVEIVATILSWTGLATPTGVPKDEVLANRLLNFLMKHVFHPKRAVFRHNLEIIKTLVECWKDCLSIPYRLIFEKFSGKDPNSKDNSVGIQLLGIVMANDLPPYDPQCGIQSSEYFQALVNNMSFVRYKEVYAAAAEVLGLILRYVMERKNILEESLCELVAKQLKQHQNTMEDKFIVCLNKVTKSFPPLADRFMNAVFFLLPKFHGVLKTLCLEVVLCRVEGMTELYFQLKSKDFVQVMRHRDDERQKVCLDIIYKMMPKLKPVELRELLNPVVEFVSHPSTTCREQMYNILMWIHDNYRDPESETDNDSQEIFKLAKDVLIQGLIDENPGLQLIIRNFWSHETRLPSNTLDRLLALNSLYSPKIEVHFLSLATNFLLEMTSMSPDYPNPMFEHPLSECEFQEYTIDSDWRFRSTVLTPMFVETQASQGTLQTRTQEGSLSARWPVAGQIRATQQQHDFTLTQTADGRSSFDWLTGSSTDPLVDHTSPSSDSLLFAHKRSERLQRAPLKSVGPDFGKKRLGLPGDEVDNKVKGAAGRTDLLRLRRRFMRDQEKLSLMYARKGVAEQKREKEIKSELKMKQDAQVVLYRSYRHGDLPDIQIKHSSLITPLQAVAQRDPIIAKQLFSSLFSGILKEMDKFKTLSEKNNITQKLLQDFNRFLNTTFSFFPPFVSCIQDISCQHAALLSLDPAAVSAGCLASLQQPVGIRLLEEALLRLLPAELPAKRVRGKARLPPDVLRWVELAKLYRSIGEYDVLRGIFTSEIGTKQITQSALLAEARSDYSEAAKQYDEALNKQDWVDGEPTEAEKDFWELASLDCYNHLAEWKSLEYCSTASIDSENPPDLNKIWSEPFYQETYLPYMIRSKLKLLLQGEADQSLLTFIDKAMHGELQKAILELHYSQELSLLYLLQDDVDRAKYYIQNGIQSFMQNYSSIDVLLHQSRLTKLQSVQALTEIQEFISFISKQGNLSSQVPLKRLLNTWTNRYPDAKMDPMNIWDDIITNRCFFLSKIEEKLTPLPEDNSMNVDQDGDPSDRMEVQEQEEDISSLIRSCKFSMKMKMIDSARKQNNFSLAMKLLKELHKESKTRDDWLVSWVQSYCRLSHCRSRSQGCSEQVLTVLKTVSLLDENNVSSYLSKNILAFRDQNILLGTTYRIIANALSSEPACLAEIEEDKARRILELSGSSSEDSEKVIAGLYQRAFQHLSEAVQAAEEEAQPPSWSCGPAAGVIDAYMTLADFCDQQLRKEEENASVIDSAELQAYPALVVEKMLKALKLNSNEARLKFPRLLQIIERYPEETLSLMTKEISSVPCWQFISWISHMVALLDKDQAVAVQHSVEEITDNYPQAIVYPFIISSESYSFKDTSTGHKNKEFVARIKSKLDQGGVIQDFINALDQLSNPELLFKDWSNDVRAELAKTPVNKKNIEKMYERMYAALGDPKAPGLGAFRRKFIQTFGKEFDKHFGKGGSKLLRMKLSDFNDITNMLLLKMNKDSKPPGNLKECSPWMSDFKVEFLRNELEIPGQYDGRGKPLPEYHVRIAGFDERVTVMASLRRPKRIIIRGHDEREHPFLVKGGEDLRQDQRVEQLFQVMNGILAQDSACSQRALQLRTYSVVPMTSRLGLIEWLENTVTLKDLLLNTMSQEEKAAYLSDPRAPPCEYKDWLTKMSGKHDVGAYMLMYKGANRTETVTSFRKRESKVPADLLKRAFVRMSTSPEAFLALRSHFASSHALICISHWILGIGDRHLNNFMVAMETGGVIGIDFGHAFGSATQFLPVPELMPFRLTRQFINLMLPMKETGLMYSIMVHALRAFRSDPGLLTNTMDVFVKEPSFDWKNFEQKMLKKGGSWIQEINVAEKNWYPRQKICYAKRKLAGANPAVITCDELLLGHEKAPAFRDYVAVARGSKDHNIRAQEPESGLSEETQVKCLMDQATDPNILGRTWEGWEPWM
Chain of Phosphatidylinositol 4,5-bisphosphate 3-kinase catalytic subunit alpha isoform (Homo sapiens) (P42336 whole entry, canonical isoform): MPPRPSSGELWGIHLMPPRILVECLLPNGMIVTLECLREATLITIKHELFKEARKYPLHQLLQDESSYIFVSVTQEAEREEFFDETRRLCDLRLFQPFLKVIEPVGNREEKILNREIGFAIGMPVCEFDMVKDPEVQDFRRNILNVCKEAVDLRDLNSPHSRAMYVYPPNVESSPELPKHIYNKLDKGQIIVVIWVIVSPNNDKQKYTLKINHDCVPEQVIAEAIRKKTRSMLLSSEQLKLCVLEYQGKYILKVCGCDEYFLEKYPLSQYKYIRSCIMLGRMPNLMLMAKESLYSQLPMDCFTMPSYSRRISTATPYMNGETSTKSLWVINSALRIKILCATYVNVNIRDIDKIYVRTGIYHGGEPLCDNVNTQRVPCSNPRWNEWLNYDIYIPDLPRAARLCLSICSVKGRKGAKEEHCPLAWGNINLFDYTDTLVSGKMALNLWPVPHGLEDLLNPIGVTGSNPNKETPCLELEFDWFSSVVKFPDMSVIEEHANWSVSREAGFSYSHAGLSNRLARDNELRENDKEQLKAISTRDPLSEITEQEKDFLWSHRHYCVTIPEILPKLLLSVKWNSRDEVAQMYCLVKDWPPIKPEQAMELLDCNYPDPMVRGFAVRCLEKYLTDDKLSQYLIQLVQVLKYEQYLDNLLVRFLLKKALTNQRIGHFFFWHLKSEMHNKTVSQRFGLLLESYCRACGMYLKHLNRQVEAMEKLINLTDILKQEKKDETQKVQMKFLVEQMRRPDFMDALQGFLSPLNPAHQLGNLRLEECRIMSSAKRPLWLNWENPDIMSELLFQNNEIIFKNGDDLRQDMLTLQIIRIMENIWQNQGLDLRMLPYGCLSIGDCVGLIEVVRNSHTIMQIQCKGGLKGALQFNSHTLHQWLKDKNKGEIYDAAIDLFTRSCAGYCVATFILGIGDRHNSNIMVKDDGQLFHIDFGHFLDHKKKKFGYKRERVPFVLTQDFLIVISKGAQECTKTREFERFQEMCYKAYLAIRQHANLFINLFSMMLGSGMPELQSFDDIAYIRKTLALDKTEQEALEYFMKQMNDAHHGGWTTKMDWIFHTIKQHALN

One may read the inhibition as the relative decrease from the control value, in per cent. As a reminder, the IC50 is the concentration needed to halve the response being measured. `O=c1nc(N2CCOCC2)oc2c(-c3cc4ccccc4s3)c(OCc3cccnc3)ccc12`: the inhibition was 2.6% in [1]; 75.6% in [2]; 56.4% in test [3]; -8.1% in [4]; 8.9% in test [5]; 18.1% in [7]. For the same compound, the IC50 in [6] is 2.7 µM.
Take `O=c1nc(N2CCOCC2)oc2c(-c3cc4ccccc4s3)c(OCc3ccccn3)ccc12`: the inhibition in test [2] was 24.6%; in test [3] it was 77.9%; in test [4], -1%; in [5] it was 47.2%. The compound also came in with a half-maximal inhibitory concentration (IC50) in test [8] of 3.01 µM.
Regarding `O=c1nc(N2CCOCC2)oc2c(-c3ccc(Cl)cc3)c(OCc3ccncc3)ccc12`, the inhibition in test [1] was determined as 28.7%; in test [2] it was 63.3%; in test [3], 56.1%; in [4], 26.5%; in [5] it was 21.5%; in test [7] it was 56.6%. Further, in test [6], the IC50 turned out to be 9.2 µM.
Regarding `COc1ccc(-c2c(OCCBr)ccc3c(=O)nc(N4CCOCC4)oc23)cc1`, the inhibition is 56.3% in test [1]; 88.8% in test [2]; 28% in [3]; -8.6% in test [4]; 44.4% in test [5]; 39.7% in test [7]. The concentration for half-maximal inhibition (IC50) in test [6] amounted to 2.7 µM.
Consider `O=c1nc(N2CCOCC2)oc2c(-c3ccccc3)c(OCc3ccncc3)ccc12`, for which the inhibition in test [1] came to 46.1%; in [2], 80.8%; in test [3], 60.1%; in test [4] it was 8.2%; in test [5], 15.1%; in test [7], 68.1%. Moreover, the IC50 in [6] is 5.8 µM.
For the compound `O=c1nc(N2CCOCC2)oc2c(-c3ccc(Cl)cc3)c(OCc3ccccn3)ccc12`, the inhibition in test [1] is 28.6%; in [2] it was 62.1%; in [3], 63.3%; in test [4], 23.5%; in test [5] it was 27%; in test [7], 48.8%. Moreover, the concentration for half-maximal inhibition (IC50) in test [6] worked out at 14.7 µM.
As to `O=c1nc(N2CCOCC2)oc2c(-c3ccccc3)c(OCc3ccccn3)ccc12`, the inhibition in test [1] is 59.2%; in [2], 88.9%; in [3], 71.3%; in test [4] it was 38.1%; in test [5], 25.7%; in test [7], 66.4%. The results for the IC50 in test [8] and in test [6] were 2.75 µM and 4 µM, respectively.
For the compound `COc1ccc(-c2c(OCCN3CCN(C)CC3)ccc3c(=O)nc(N4CCOCC4)oc23)cc1`, the inhibition in test [1] came out at 40.3%; in test [2], 73.9%; in test [3] it was 11.5%; in test [4], 6.23%; in test [5], 18.1%; in test [7], 44.8%. The IC50 in test [6] stood at 5.68 µM.
Consider `COc1ccc(-c2c(OCc3cccnc3)ccc3c(=O)nc(N4CCOCC4)oc23)cc1`, for which the inhibition in test [1] is 30%; in test [2], 87.8%; in [3], 29.8%; in test [4] it was -2.2%; in test [5], 33.5%; in [7], 39.3%. Also, the IC50 in [6] was found to be 2.8 µM.
As to `O=c1nc(N2CCOCC2)oc2c(-c3ccsc3)c(OCc3ccccn3)ccc12`, the inhibition in [1] was -8.1%; in test [2] it was 18%; in [3] it was 88.8%; in test [4] it was 4.4%; in test [5] it was 39.7%; in test [7], -3%. Besides, half-maximal inhibition in [8] (IC50) was put at 3.05 µM.
Turning to `CN1CCN(CCOc2ccc3c(=O)nc(N4CCOCC4)oc3c2-c2ccccc2)CC1`, the inhibition in test [1] stood at 24%; in test [2], 53.4%; in test [3] it was 11.4%; in [4], 4.3%; in test [5] it was 9.8%; in [7], 31.8%. Besides, the concentration for half-maximal inhibition (IC50) in the test on Platelet was found to be 10 µM.
Consider `O=c1nc(N2CCOCC2)oc2c(-c3cccs3)c(OCc3ccccn3)ccc12`, for which the inhibition is -0.6% in test [1]; 21.8% in [2]; 74.5% in [3]; 0.1% in test [4]; 40.1% in test [5]; 4.1% in [7]. The compound further displayed an IC50 in [8] of 2.95 µM.
Turning to `COc1ccc(-c2c(OCc3ccccn3)ccc3c(=O)nc(N4CCOCC4)oc23)cc1`, the inhibition is 28.9% in test [1]; 85.4% in [2]; 50.4% in test [3]; 12.6% in [4]; 33.8% in test [5]; 42.9% in [7]. The half-inhibitory concentration (IC50) in [6] turned out to be 2.7 µM.
For the compound `O=c1nc(N2CCOCC2)oc2c(-c3ccccc3)c(OCc3cccnc3)ccc12`, the inhibition is 57.9% in [1]; 85.5% in [2]; 50.4% in test [3]; 25.7% in [4]; 18% in test [5]; 64.4% in [7]. For the same compound, the values for the IC50 (in the test with Platelet; in [6]) were 80 µM and 7.2 µM, respectively.
`CC(C)Cn1c(=O)n(C)c(=O)c2[nH]cnc21` [ISOBUTYLMETHYLXANTHINE] yielded a concentration for half-maximal inhibition (IC50) in [8] of 7 µM.
In the case of `O=c1nc(N2CCOCC2)oc2c(-c3ccc(Cl)cc3)c(OCc3cccnc3)ccc12`, the inhibition in test [1] was found to be 34.6%; in test [2] it was 64.9%; in [3] it was 43.6%; in test [4] it was 20%; in [5], 32.7%; in test [7] it was 53.2%. The IC50 in [6] came out at 10.1 µM.
